This is an account of results in patent US20240000736A1, “INHIBITION OF PROTEIN AMYLOID AGGREGATION USING FLUORINATED BENZENESULFONAMIDES” (Vilnius University, priority 2022, published 2024).

Usually melting point stands for the temperature of the solid-liquid transition.

`CCCCCCNc1c(F)c(SCCc2ccc(C(=O)O)cc2)c(F)c(F)c1S(N)(=O)=O` [MZ21-06, 4-[2-[2,3,6-Trifluoro-5-(hexylamino)-4-sulfamoyl-phenyl]sulfanylethyl]benzoic acid]: the melting point was in the range of 110 to 112 °C. The result for `NS(=O)(=O)c1c(F)c(F)c(SCc2ccc(C(=O)O)cc2)c(F)c1NC1CCCCCCCCC1` [MZ21-25, 4-[[3-(Cyclodecylamino)-2,5,6-trifluoro-4-sulfamoyl-phenyl]sulfanylmethyl]benzoic acid] reads 176 °C; that for `NS(=O)(=O)c1c(F)c(F)c(Sc2ccc(C(=O)O)cc2)c(F)c1NC1CCCCCCCCCCC1` [MZ21-02, 4-[3-(Cyclododecylamino)-2,5,6-trifluoro-4-sulfamoyl-phenyl]sulfanylbenzoic acid], 186 to 188 °C. Take `NS(=O)(=O)c1c(F)c(F)c(SCc2ccc(C(=O)O)cc2)c(F)c1NCC1CCCCCCC1` [MZ21-23, 4-[[3-(Cyclooctylmethylamino)-2,5,6-trifluoro-4-sulfamoyl-phenyl]sulfanylmethyl]benzoic acid]: the melting point lay in the range of 157 to 158 °C.

Consider `NS(=O)(=O)c1c(F)c(F)c(Sc2ccccc2C(=O)O)c(F)c1NC1CCCCCCCCCCC1` [MZ22-10, 2-[3-(Cyclododecylamino)-2,5,6-trifluoro-4-sulfamoyl-phenyl]sulfanylbenzoic acid], for which the melting point turned out to be 85 °C.

Turning to `CCC(C)C(C)CCNc1c(F)c(SCc2ccc(C(=O)O)cc2)c(F)c(F)c1S(N)(=O)=O` (stereo not drawn) [MZ21-40, 4-[[3-(3,4-Dimethylhexylamino)-2,5,6-trifluoro-4-sulfamoyl-phenyl]sulfanylmethyl]benzoic acid], the melting point was found to be 133 °C. Turning to `CCCCCCCNc1c(F)c(SCCc2ccc(C(=O)O)cc2)c(F)c(F)c1S(N)(=O)=O` [MZ21-11, 4-[2-[2,3,6-Trifluoro-5-(heptylamino)-4-sulfamoyl-phenyl]sulfanylethyl]benzoic acid], the melting point was 66 to 68 °C.

Consider `NS(=O)(=O)c1c(F)c(F)c(SCCc2ccc(C(=O)O)cc2)c(F)c1NC1CCCCCCC1` [VR16-10, 4-[2-[3-(Cyclooctylamino)-2,5,6-trifluoro-4-sulfamoyl-phenyl]sulfanylethyl]benzoic acid], for which the melting point fell in the range of 166 to 168 °C.

Turning to `NS(=O)(=O)c1c(F)c(F)c(SCc2ccc(C(=O)O)cc2)c(F)c1NC1CCCCCCCCCCC1` [MZ21-10, 4-[[3-(Cyclododecylamino)-2,5,6-trifluoro-4-sulfamoyl-phenyl]sulfanylmethyl]benzoic acid], the melting point lay in the range of 190 to 191 °C. Under `NS(=O)(=O)c1c(F)c(F)c(Sc2cccc(C(=O)O)c2)c(F)c1NC1CCCCCCCCCCC1` [MZ22-07, 3-[3-(Cyclododecylamino)-2,5,6-trifluoro-4-sulfamoyl-phenyl]sulfanylbenzoic acid] stands 123 to 125 °C. `CCCCCCCCNc1c(F)c(SCCc2ccc(C(=O)O)cc2)c(F)c(F)c1S(N)(=O)=O` [MZ20-07, 4-[2-[2,3,6-Trifluoro-5-(octylamino)-4-sulfamoyl-phenyl]sulfanylethyl]benzoic acid]: the melting point fell in the range of 69 to 71 °C.

In turn, `CCCC(CCC)CCNc1c(F)c(SCc2ccc(C(=O)O)cc2)c(F)c(F)c1S(N)(=O)=O` [MZ21-35, 4-[[2,3,6-Trifluoro-5-(3-propylhexylamino)-4-sulfamoyl-phenyl]sulfanylmethyl]benzoic acid] yielded a melting point of 149 °C. The result for `NS(=O)(=O)c1c(F)c(F)c(SCc2cccc(C(=O)O)c2)c(F)c1NC1CCCCCCCCCCC1` [MZ21-26, 3-[[3-(Cyclododecylamino)-2,5,6-trifluoro-4-sulfamoyl-phenyl]sulfanylmethyl]benzoic acid] reads 109 to 111 °C; that for `CCCCCCCCCNc1c(F)c(SCCc2ccc(C(=O)O)cc2)c(F)c(F)c1S(N)(=O)=O` [MZ21-12, 4-[2-[2,3,6-Trifluoro-5-(nonylamino)-4-sulfamoyl-phenyl]sulfanylethyl]benzoic acid], 66 to 67 °C; that for `NS(=O)(=O)c1c(F)c(F)c(Sc2ccc(CC(=O)O)cc2)c(F)c1NC1CCCCCCCCCCC1` [MZ21-18, 2-[4-(3-(Cyclododecylamino)-2,5,6-trifluoro-4-sulfamoylphenyl)sulfanylphenyl]acetic acid], 148 to 150 °C.
